From patent US11981664B2, “Photoresponsive nutlin derivatives and uses thereof” (Rijksuniversiteit Groningen, priority 2018, dated 2024) come the findings set out here.

Structures are written as SMILES.

One data set concerns cellular outgrowth. The experiment in a line: Cell outgrowth experiments with PPG photoproduct. The settings on record: photoproduct formed upon photocleavage of photonutlin. It is filed as cell-based. Here is the method:
Cells were plated at equal amounts (1000 cells per well) in a 24-wells plate followed by indicated treatments −/+irradiation (400 nm for 5 min) 24 h later. Cells were cultured under normal cell culture conditions for 6 days to allow colony outgrowth. Plates were fixed using 99.8% ice-cold methanol (Honeywell) for 10 min at RT. After a 1 time wash in H2O, cells were incubated in 0.2% crystal violet (Sigma) in H2O for at least 3 h at RT to stain cellular outgrowth.

Data set [1] can be described thus: Spontaneous hydrolysis in buffer. It is filed as physicochemical. The following applies: buffer at room temperature (data not shown). How it is done: (§1) Following the synthesis of PPG-idasanutlin as described in Example 1, its photochemical behavior under physiological conditions was investigated, UV-vis spectroscopy and UPLC-MS measurements were performed in aqueous buffer at pH=7.0. […] Moreover, no significant spontaneous hydrolysis of PPG-idasanutlin for >24 h in buffer at room temperature was observed (data not shown).

Data set [2] concerns BJ-hTert, RKO (colon carcinoma), U2OS (osteosarcoma) cell lines. Description: Clonogenic outgrowth of additional cell lines. It is filed as cell-based. The settings on record: 6 days after treatment + 400 nm irradiation for 5 min. How it is done: (§2) FIG. 3: Functional p53 induction upon λ=400 nm irradiation in PPG-idasanutlin treated cells, a) RPE-1 cells were treated with indicated compounds (all 10 μM final) and fixed 4 h after 5 min (−/+400 nm) irradiation. Anti-p53 staining indicates p53 protein expression in the nucleus. […] Error bars represent mean +sd, ****P<0.0001 (unpaired t-test), Dots represent individual cells, n>125 cells per condition combined from 2 independent experiments. c) Representative western blot showing p53 protein levels in cells 4 h after addition of DMSO or PPG-idasanutlin and irradiation for indicated time periods. Hsp90 is used as a loading control. d) Selective outgrowth disadvantage in RPE-1 cells 6 days after PPG-idasanutlin treatment +400 nm irradiation for 5 min. e) Representative Western blot showing p53 protein levels in three cell lines (U2OS, RKO, BJhTert) 4 h after indicated treatments. f) Selective outgrowth inhibition in indicated cell lines 6 days after PPG-idasanutlin treatment +400 nm irradiation for 5 min. In all the experiments <1% DMSO was used.
(§3) Cells were plated at equal amounts (1000 cells per well) in a 24-wells plate followed by indicated treatments −/+irradiation (400 nm for 5 min) 24 h later. Cells were cultured under normal cell culture conditions for 6 days to allow colony outgrowth. Plates were fixed using 99.8% ice-cold methanol (Honeywell) for 10 min at RT. […]

Data set [3] relates to p53 protein level in RPE-1 cells. The experiment in a line: Immunofluorescent staining of nuclear p53 protein in RPE-1 cells. It is filed as cell-based. The settings on record: for nuclear p53 protein levels: 4 h after addition, regardless of irradiation with 400 nm light. Here is the method: as §2
RPE-1 cells were plated on coverslips at equal density and treated with indicated drugs before −/+irradiation (400 nm for 5 min). For immune fluorescent staining, cells were fixed 4 h after irradiation by wash out of the medium, single wash in phosphate-buffered saline (1× PBS) and incubation in 3.7% formaldehyde for 5 min. Next, fixed cells were permeabilized with 0.2% TritonX in 1× PBS for 5 min before blocking in 3% […] (BSA) in 1× PBS supplemented with 0.1% Tween (PBST) for 1 h (all at room temperature (RT)). Cells were incubated overnight at 4° C. with primary antibody in PBST with 3% BSA, washed three times with PBST, and incubated with secondary antibody and DAPI in PBST with 3% BSA for 2 h at RT. After a final three time wash with PBST coverslips were mounted on microscopic analysis slides using ProLong Gold antifade reagent (Thermo Fisher). The following antibodies were used: anti-p53 (sc-126, Santa Cruz, 1/1000), phalloidin (A12380, Molecular Probes, 1/1000) and goat anti-mouse/Alexa. 488 (A11029, Molecular Probes, 1/1000).
Next, the biological activity of PPG-idasanutlin was investigated. Initial studies aimed at confirming a difference in p53 activation upon λ=400 nm light exposure after addition of the protected idasanutlin derivative (PPG-idasanutlin). To that end, non-transformed, p53-proficient retinal pigment epithelial cells (RPE-1) were treated with either DMSO (control), nutlin-3, idasanutlin or PPG-idasanutlin, followed by −/+irradiation with 400 nm light (FIG. 3).

Data set [4] shares this test system. Description: p53 protein levels (western blot) in RPE-1 cells, dose-response. The following applies: increasing duration of 400 nm irradiation and varying doses, 4 h. It is filed as cell-based. Here is the method:
as §2, with “used. […]” for “used.”
To examine the level of control over the dose-response of idasanutlin (employing PPG-idasanutlin), p53 protein levels in RPE-1 cells were determined by immunostaining after both increasing duration of 400 nm light irradiation and varying doses of PPG-idasanutlin (FIG. 3.c).
On the technique in general: In western blotting, separated proteins are transferred to a membrane and probed.

For the next data set, the system named is p53-venus in RPE-1 cells. Description: Live-cell imaging of nuclear p53-venus signal after single-cell laser irradiation. It is filed as cell-based. Here is the method:
(§4) FIG. 5: Spatiotemporal control of PPG-idasanutlin. a) Schematic representation of microwell set-up for laser irradiation of individual RPE-1 cells to activate PPG-idasanutlin. Laser target area (represented. by red circle) for single pulse (0.1 sec irradiation at 5 um interspaced position) indicated with scale. Individual irradiated cells followed by measuring nuclear p53-venus levels (fluorescence) every 15 min for 3 h after laser irradiation. Approximately 200 cells in each microwell. b) Percentage of cells that divide within 8 h after indicated treatments. Mean±sem of three independent experiments. Error bars indicate 95% confidence intervals. c, d) p53-venus fluorescent signal in individual RPE-1 cells tracked over time after indicated treatments as represented in (a). Line-graphs represent mean of individual cells. n>42 cells per condition pooled from three independent experiments. ***p<0.005, ****p<0.0001 significance in 2-way anova interaction score.
For live cell imaging, cells were grown in picovitro microwells covered by a silicon membrane^4 in Leibovitz's L-15 (Gibco) CO2-independent medium supplemented with ultraglutamine, penicillin/streptomycin and 10% fetal calf serum. Images for both fixed slides and live cell imaging were obtained using a Delta Vision Elite (applied precision) equipped with a 60× 1.6 NA or 10× 0.75 NA lens (Olympus) and cooled CoolSnap CCD camera. Directed laser irradiation was performed using a brief (0.1 s) pulse of a 405 nm laser on the Delta Vision Elite microscope equipped with a X4 laser module (Applied Precision). Image analysis was done using ImageJ software. […]
Using RPE-1 cells that stably expressed a venus-tagged version of p53 (p53-venus), p53 protein accumulation could be tracked with high time-resolution in individual cells by live-cell microscopy. […] To determine the functionality of the high spatiotemporal control obtained in this set-up, cell cycle progression was monitored in single cells following laser activation of PPG-idasanutlin (photorelease of idasanutlin). […]

Data set [5] has as its system p53 in BJ-hTert, RKO (colon carcinoma), U2OS (osteosarcoma) cell lines. The experiment in a line: p53 protein levels (western blot) in additional cell lines. It is filed as cell-based. The following applies: U2OS (all cell lines tested), after light irradiation, 4 h. Here is the method: as §2
RPE-1 cells were plated at equal density in 6-well plates followed by indicated treatments −/+irradiation (400 nm for 5 min) 24 h later. Cells were fixed and collected 4 h after treatment by wash out of the medium, single wash in 1× PBS followed by addition of laemmli buffer (4% SDS, 20% glycerol and 0.125 M Tris HCl). […]

In another data set the test system is RPE-1 p53-venus cells. Description: Live-cell imaging of cell division after single-cell laser irradiation. It is filed as cell-based. The settings on record: RPE-1 p53-venus cells irradiated with 405 nm laser (0.1 s pulse) after treatment. Here is the method:
as §4, with “score. […]” for “score.”
Using RPE-1 cells that stably expressed a venus-tagged version of p53 (p53-venus), p53 protein accumulation could be tracked with high time-resolution in individual cells by live-cell microscopy. […] To determine the functionality of the high spatiotemporal control obtained in this set-up, cell cycle progression was monitored in single cells following laser activation of PPG-idasanutlin (photorelease of idasanutlin).

Data set [6] can be described thus: Photochemical behavior (photocleavage) by UV-vis spectroscopy and UPLC-MS in aqueous buffer. The settings on record: λ=400 nm light, aqueous buffer pH=7.0. It is filed as physicochemical. How it is done:
Thin Layer Chromatography (TLC) was performed using commercial Kieselgel 60, F254 silica gel plates with fluorescence-indicator UV254 (Merck, TLC silica gel 60 F254). For detection of components, UV light at λ=254 nm or λ=365 nm was used. Alternatively, oxidative staining using aqueous basic potassium permanganate solution (KMnO4) or aqueous acidic cerium phosphomolybdic acid solution (Seebach's stain) was used. Flash chromatography was performed on silica gel (Silicycle Siliaflash P60, […], 230-400 mesh). Drying of solutions was performed with MgSO4 and volatiles were removed with a rotary evaporator. Nuclear Magnetic Resonance spectra were measured with an Agilent Technologies 400-MR (400/54 Premium Shielded) spectrometer (400 MHz). All spectra were measured at room temperature (22-24° C.). Chemical shifts for ^1H- and ^13C-NMR measurements were determined relative to the residual solvent peaks in ppm (δH 7.26 for CHCl3, 2.50 for DMSO and 2.05 ppm for Acetone, δC 77.16 for CHCl3 and 39.52 for DMSO). The following abbreviations are used to indicate signal multiplicity: s, singlet; d, doublet; t, triplet; q, quartet; m, multiplet; brs, broad signal. All ^13C-NMR spectra are ^1H-broadband decoupled. High-resolution mass spectrometric measurements were performed on a Thermo scientific LTQ Orbitrap XL with ESI ionization. For spectroscopic measurements, solutions in Uvasol® grade solvents were measured in a 10 mm quartz cuvette. UV-Vis absorption spectra were recorded on an Agilent 8453 UV-Visible absorption Spectrophotometer.
as §1

Another data set has as its system RPE-1 cells. Description: Clonogenic outgrowth of RPE-1 cells. The settings on record: 6 days. It is filed as cell-based. Here is the method:
as §2, §3

`CCN(CC)c1ccc2c(C(C)O)cc(=O)oc2c1` (stereo not drawn) [PPG 6, 7-(diethylamino)-4-(1-hydroxyethyl)-2H-chromen-2-one]: in the data set with cellular outgrowth, the cellular outgrowth entry is listed as “does not perturb”.

As for `CCN(CC)c1ccc2c(C(C)OC(=O)c3ccc(NC(=O)[C@@H]4N[C@@H](CC(C)(C)C)[C@](C#N)(c5ccc(Cl)cc5F)[C@H]4c4cccc(Cl)c4F)c(OC)c3)cc(=O)oc2c1` (stereo partly drawn) [PPG-idasanutlin, 1-(7-(diethylamino)-2-oxo-2H-chromen-4-yl)ethyl 4-((2R,3S,4R,5S)-3-(3-chloro-2-fluorophenyl)-4-(4-chloro-2-fluorophenyl)-4-cyano-5-neopentylpyrrolidine-2-carboxamido)-3-methoxybenzoate], in [1], the “time without significant spontaneous hydrolysis” value is more than 24 h. Moreover, the cellular outgrowth result in data set [2] was “dramatic reduction”. Moreover, the p53 protein level result in data set [3] (10 μM, irradiated with 400 nm light (5 min), fixed 4 h after) is reported as “significant increase”. Moreover, the p53 stabilization entry in data set [3] (without 400 nm irradiation) is “no functional effect”. Besides, the “accumulation of p53 protein” value in data set [4] is reported as “clear dose-response dependent accumulation”. Further, the “nuclear p53-venus signal” value with p53-venus in RPE-1 cells (neighbouring cells not irradiated by the 405 nm laser) is “significantly lesser extent”; in the data set on p53-venus in RPE-1 cells (non-irradiated cells from adjacent wells at micrometer distance), “completely absent”; with p53-venus in RPE-1 cells (single cells irradiated with 405 nm laser, 15 min intervals) it was “selective stabilization”. Moreover, the “stabilization of p53” value in data set [5] was “Selective stabilization”. Further, the “percentage of cells that divide within 8 h” value in the data set on RPE-1 p53-venus cells is “strongly drops”. Besides, the “irradiation time for major photorelease of idasanutlin” value in data set [6] was not above 5 min. Further, the “products observed upon photodeprotection” value in data set [6] was “solely the formation of idasanutlin and hydroxycoumarin”. Moreover, the “quantum yield of photocleavage” value in [6] is listed as 0.1%. Besides, in the data set with RPE-1 cells (after irradiation with 400 nm for 5 min), the colony outgrowth result is on record as “selectively blocked”. The “colony outgrowth (growth inhibition)” value in the data set on RPE-1 cells (without 400 nm irradiation) is recorded as “did not show any growth inhibition”.

As for `COc1cc(C(=O)O)ccc1NC(=O)[C@@H]1N[C@@H](CC(C)(C)C)[C@](C#N)(c2ccc(Cl)cc2F)[C@H]1c1cccc(Cl)c1F` [idasanutlin, 4-((2R,3S,4R,5S)-3-(3-chloro-2-fluorophenyl)-4-(4-chloro-2-fluorophenyl)-4-cyano-5-neopentylpyrrolidine-2-carboxamido)-3-methoxybenzoic acid, reference compound], the “nuclear p53 protein levels” value in data set [3] (10 μM) is on record as “significant increase”.

Turning to `COc1ccc(C2=N[C@@H](c3ccc(Cl)cc3)[C@@H](c3ccc(Cl)cc3)N2C(=O)N2CCNC(=O)C2)c(OC(C)C)c1` [nutlin-3, reference compound], the “nuclear p53 protein levels” value in [3] (10 μM) is reported as “significant increase”.
